Assay results reported in patent US6375999B1, “Methods for treating potatoes” (priority 1993, dated 2002).

Assays:
[1] = test system: freshly dug potatoes; experiment: outdoor pile of injured, freshly dug potatoes sprayed with pure 1,4-dimethyl naphthalene; type: in vivo, potato; settings: outdoors, humidity about 40%, no control sample
Description: A pile of freshly dug potatoes having considerable injuries such as cuts, scrapes and abrasions were sprayed with pure 1,4-dimethyl naphthalene. The pile was located outdoors with a humidity condition of about 40%. […] Although a control sample wasn't used, potatoes with such a large quantity of cuts, abrasions and the like in an exposed, low humidity environment would typically show minimal healing and a considerable amount of rot.

[2] = test system: stored potatoes; experiment: low humidity storage after early treatment with 1,4-DMN; type: in vivo, potato; settings: storage conditions of 85%, and less
Description: No approved method exists for treating silver scruff. Effective fungicides are not approved for treatment of potatoes. […] A disadvantage of low humidity storage is that such potatoes dehydrate and soften. This causes the potatoes to be less acceptable for certain markets and results in some loss of product.

[3] = test system: potatoes which have started to sprout; experiment: treatment of potatoes which have started to sprout; type: in vivo, potato; settings: certain types of potatoes which have started to sprout
Description: For example, in treating a potato storage facility with liquid sprout inhibitor such as an isomer of DMN, especially the 1,4 and 1,6 isomers of DMN, it is only necessary to have a very low concentration of DMN in the atmosphere inasmuch as the quantity of DMN in a potato is very low so that only very minor quantities of DMN respire or exit the potato. Thus, only a very low partial pressure for DMN is created in a static air space surrounding a potato by respiration. The purpose of DMN in the atmosphere surrounding potatoes is to stop or reduce the exiting of DMN from the potato. Once DMN exiting starts, it is believed that such departure initiates the process which leads to sprouting. […] Thus, in applying liquid sprout inhibitors which are found natively in potatoes it is generally preferred to initiate treatment prior to the onset of sprouting and preferably prior to any considerable exiting of DMN, for example, from the stored potato.
Although, as indicated in the Plant patent, CIPC is not applied until after suberization (wound healing). DMN is preferably applied initially shortly after the potatoes have been put into the facility. […] Also, unlike CIPC, DMN is not a foreign material to a potato.

[4] = test system: stored potatoes; settings: early application to stored potatoes; cited from earlier work

**Q.** What does the source list for `Cc1ccc(C)c2ccccc12` [1,4-dimethyl naphthalene]?
**A.** evidence of rot in injured potatoes ([1]; about two days after spraying): only a small portion of the injured potatoes showing any evidence of rot; time after spraying until suberization processes appeared to be complete ([1]; pure compound sprayed): two; hydration and firmness of potatoes in low humidity storage [2]: stay hydrated and firm

**Q.** What does the source list for `CC(C)OC(=O)Nc1cccc(Cl)c1` [CIPC, Chloroisopropyl-N-carbamate]?
**A.** effect on sprouting once sprouting has been initiated [3]: generally retard potato sprouting even after sprouting has been initiated; effect on suberization [4]: tends to retard suberization
